Here are results for one compound from paper PMC4579270, “Identification and Characterization of an Irreversible Inhibitor of CDK2” (Chemistry & Biology, 2015).

The remaining activity is the signal under treatment as a percentage of the control signal.

Type in all cases: biochemical
In one experiment the target is S6K1 (Homo sapiens, UniProt P23443). As to the kind of experiment: Dundee protein kinase screen. As to conditions: S6K1, 1µM; read-out: %Remaining activity at 1µM NU6300. Here is the method:
(§1) Prior to determining its cellular activity, we carried out a screen to assess its selectivity against a panel of 131 protein kinases under conditions that would not distinguish between a reversible or irreversible mode of action. […] These 13 kinases and 29 additional kinases, selected for their known sensitivity to other inhibitors within the purine series, were then tested in a modified screening format in which the assay was repeated following a 4-hr pre-incubation (Table S3B). […] However, conformational flexibility around the active site may promote such an interaction with a residue from another part of the structure ([Martin et al., 2012]).
(§2) Table S3, Related to Figure 4. NCL-0006300 protein kinase selectivity. (A) NU6300 was tested at a single concentration of 1µM against 131 protein kinases present in a Dundee protein kinase screen (Bain et al., 2007). Values given are % activity remaining and are the average of duplicate measurements: 0-25% (red), 26-50% (yellow), 51-80% (black) and above 81% (green). The kinase domain sequences (as defined by UniProt) of […]
(§3) have a lysine residue at a position close to CDK2 Lys88 or Lys89. However, in the structure of tyrosine-protein kinase BTK (PDB ID: 3GEN) the residue equivalent to CDK2 Asp86 is Cys481 and therefore there is the potential for a covalent adduct to be formed through this side chain. Ephrin type-B receptor 3 (UniProt entry P54753) also encodes a cysteine residue (Cys717) that by sequence alignment would be predicted to be close to the CDK2 lysine pair. (B) Selected kinases were re-tested in the Dundee kinase screen against NU6300 at a single concentration of 0.5 µM both in the standard assay format and following a 4 hour pre-incubation in the presence of NU6300. Kinases which have very low activity after the 4 hour incubation so that results might not be wholly reliable are boxed in salmon. Kinases where the activity after a 4 hour pre-incubation is < 50% that in the standard assay format are highlighted in red.

In a further experiment the target is VEG-FR1 (Homo sapiens, UniProt P17948). As to the kind of experiment: Dundee protein kinase screen. As to conditions: VEG-FR1, 1µM; read-out: %Remaining activity at 1µM NU6300. Here is the method: as §1, §2, §3
The target in the next experiment is p38γ MAPK (Homo sapiens, UniProt P53778). As to the kind of experiment: Dundee protein kinase screen. As to conditions: read-out: %Remaining activity at 1µM NU6300. Here is the method: as §1, §2, §3
A further experiment has as its target ZAP70 (Homo sapiens, UniProt P43403). Put plainly: Dundee protein kinase screen. As to conditions: ZAP70, 1µM; read-out: %Remaining activity at 1µM NU6300. Here is the method:
as §1, §2, §3

For a further experiment, the target named is T1, MST2 (Homo sapiens, UniProt Q13188).
T1 sequence (Q13188 1-491): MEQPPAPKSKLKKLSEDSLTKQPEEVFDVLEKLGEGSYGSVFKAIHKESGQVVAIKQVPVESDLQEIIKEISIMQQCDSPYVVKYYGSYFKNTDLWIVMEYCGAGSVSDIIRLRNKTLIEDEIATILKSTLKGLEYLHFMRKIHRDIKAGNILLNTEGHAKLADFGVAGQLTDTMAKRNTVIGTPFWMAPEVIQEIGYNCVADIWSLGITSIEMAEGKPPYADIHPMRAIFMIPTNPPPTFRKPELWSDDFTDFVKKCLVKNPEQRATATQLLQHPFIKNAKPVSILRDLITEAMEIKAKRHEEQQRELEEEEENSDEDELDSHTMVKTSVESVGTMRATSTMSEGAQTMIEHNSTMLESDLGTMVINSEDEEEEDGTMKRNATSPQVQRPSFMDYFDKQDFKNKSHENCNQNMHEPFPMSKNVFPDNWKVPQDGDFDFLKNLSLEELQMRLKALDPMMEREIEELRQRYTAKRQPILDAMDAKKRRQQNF
Put plainly: Dundee kinase screen re-test (standard format and 4 hour pre-incubation). As to conditions: for remaining activity at 0.5 µM: MST2, 0.5µM. Here is the method:
as §1, §2, §3

In the next experiment the target is Src (Homo sapiens, UniProt P12931). The experiment is described as above. Here is the method: as §1
(§4) Table S3, Related to Figure 4. NCL-0006300 protein kinase selectivity. […]
(§5) Dundee protein kinase screen (Bain et al., 2007). Values given are % activity remaining and are the average of duplicate measurements: 0-25% (red), 26-50% (yellow), 51-80% […]
(§6) (black) and above 81% (green). […]
(§7) (B) Selected kinases were re-tested in the Dundee kinase screen against NU6300 at a single concentration of 0.5 µM both in the standard assay format and following a 4 hour pre-incubation in the presence of NU6300. Kinases which have very low activity after the 4 hour incubation so that results might not be wholly reliable are boxed in salmon. Kinases where the activity after a 4 hour pre-incubation is < 50% that in the standard assay format are highlighted in red.

Another experiment has as its target SIK2 (Homo sapiens, UniProt Q9H0K1). The experiment is described as above. As to conditions: SIK2, 0.5µM. Here is the method:
as §1, §4, §5, §6, §7

The next experiment concerns the target ROCK 2 (Homo sapiens, UniProt O75116). Described as above. The conditions noted are these: ROCK 2, 0.5µM. Here is the method: as §1, §4, §5, §6, §7
Another experiment has as its target T2, TAK1 (Homo sapiens, UniProt O43318).
T2 sequence (O43318 1-303 limits assumed): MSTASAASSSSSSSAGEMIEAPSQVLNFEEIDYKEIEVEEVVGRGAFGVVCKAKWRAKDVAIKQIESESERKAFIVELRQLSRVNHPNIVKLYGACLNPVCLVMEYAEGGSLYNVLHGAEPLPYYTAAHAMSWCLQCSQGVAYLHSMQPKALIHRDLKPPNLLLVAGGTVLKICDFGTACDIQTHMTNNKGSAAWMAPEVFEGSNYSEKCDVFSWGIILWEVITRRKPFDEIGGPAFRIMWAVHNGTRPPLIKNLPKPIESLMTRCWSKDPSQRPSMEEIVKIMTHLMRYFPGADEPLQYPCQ
Described as above. The conditions noted are these: TAK1, 0.5µM. Here is the method: as §1, §4, §5, §6, §7

The target in another experiment is RSK1 (Homo sapiens, UniProt Q15418). Described as above. As to conditions: RSK1, 0.5µM. Here is the method:
as §1, §4, §5, §6, §7

The mark [1] stands for this setting: 4hr RT preincubation, read-out: %Remaining activity at 0.5µM NU6300 - 4hr RT preincubation.
Setting [2] is: usual format, read-out: %Remaining activity at 0.5µM NU6300 - Usual assay format.

Read-outs that look alike come from different tables or passages of the source. A value given as a limit tells only on which side of the number the result lay.

Sequence of Src (P12931 whole entry): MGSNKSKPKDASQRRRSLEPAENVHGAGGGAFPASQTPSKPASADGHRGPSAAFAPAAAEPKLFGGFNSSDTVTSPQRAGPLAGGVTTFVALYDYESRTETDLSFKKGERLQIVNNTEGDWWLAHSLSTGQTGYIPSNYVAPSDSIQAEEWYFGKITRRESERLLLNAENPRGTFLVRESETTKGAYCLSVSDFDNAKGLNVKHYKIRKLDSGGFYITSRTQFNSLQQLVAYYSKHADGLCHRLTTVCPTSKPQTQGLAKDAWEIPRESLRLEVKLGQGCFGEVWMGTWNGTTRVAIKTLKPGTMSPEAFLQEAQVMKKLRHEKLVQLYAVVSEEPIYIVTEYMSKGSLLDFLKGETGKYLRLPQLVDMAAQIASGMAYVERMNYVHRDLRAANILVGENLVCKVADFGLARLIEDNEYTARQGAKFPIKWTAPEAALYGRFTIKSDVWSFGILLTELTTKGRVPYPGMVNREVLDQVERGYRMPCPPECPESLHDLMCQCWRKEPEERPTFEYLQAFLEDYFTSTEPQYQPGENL
Sequence of ROCK 2 (O75116 whole entry): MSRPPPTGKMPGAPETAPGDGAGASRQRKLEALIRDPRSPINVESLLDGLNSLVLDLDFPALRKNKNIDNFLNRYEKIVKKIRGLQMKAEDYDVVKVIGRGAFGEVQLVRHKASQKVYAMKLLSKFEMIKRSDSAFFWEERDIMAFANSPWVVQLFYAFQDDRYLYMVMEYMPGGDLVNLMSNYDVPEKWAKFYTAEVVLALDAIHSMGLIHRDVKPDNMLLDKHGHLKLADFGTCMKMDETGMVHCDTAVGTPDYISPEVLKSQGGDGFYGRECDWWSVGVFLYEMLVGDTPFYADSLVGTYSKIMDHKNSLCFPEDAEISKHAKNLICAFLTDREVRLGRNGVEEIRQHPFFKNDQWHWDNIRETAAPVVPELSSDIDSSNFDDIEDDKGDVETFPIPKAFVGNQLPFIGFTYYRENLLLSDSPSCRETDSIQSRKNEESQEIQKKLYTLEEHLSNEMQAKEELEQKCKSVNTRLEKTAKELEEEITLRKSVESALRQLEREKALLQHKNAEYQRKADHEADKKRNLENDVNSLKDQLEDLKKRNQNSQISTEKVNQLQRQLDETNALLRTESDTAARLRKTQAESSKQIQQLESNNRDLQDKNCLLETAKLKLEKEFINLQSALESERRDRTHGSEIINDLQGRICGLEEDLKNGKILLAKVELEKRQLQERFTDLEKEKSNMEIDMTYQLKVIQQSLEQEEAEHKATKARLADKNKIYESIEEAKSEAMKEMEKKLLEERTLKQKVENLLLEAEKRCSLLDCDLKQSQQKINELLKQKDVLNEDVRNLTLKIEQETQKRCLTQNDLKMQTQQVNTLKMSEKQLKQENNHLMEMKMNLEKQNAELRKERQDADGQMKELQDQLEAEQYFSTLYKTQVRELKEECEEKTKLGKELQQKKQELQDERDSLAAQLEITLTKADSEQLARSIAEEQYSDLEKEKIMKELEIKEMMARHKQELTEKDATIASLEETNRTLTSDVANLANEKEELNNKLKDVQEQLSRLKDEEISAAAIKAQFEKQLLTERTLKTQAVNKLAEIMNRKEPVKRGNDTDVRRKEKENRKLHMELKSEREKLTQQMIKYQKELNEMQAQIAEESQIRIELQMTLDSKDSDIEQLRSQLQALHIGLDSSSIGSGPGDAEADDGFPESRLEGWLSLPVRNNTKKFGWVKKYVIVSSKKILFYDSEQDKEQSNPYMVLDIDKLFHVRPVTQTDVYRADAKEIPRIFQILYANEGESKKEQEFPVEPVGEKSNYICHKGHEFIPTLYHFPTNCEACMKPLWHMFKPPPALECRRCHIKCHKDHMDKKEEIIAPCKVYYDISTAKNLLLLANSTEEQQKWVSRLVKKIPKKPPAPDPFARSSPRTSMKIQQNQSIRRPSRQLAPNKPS
Sequence of RSK1 (Q15418 whole entry): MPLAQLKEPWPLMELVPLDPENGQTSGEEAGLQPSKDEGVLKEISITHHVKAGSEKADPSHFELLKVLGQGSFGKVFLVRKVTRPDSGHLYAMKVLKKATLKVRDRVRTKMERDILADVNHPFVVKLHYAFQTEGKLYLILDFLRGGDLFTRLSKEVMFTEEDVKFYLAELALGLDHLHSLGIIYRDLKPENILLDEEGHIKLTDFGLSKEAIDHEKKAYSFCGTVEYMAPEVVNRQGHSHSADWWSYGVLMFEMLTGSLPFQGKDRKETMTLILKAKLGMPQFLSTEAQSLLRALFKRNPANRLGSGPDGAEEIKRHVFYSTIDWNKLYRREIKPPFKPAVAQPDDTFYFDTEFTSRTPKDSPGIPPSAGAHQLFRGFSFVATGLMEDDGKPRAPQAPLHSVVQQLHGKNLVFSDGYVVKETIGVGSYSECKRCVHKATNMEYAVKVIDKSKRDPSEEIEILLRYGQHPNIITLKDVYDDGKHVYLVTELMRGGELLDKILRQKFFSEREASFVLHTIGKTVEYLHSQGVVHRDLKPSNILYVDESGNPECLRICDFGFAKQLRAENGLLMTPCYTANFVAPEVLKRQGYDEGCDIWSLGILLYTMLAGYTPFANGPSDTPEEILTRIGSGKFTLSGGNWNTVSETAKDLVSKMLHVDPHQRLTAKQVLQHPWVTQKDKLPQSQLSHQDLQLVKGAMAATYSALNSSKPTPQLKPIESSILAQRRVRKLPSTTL
Sequence of SIK2 (Q9H0K1 whole entry): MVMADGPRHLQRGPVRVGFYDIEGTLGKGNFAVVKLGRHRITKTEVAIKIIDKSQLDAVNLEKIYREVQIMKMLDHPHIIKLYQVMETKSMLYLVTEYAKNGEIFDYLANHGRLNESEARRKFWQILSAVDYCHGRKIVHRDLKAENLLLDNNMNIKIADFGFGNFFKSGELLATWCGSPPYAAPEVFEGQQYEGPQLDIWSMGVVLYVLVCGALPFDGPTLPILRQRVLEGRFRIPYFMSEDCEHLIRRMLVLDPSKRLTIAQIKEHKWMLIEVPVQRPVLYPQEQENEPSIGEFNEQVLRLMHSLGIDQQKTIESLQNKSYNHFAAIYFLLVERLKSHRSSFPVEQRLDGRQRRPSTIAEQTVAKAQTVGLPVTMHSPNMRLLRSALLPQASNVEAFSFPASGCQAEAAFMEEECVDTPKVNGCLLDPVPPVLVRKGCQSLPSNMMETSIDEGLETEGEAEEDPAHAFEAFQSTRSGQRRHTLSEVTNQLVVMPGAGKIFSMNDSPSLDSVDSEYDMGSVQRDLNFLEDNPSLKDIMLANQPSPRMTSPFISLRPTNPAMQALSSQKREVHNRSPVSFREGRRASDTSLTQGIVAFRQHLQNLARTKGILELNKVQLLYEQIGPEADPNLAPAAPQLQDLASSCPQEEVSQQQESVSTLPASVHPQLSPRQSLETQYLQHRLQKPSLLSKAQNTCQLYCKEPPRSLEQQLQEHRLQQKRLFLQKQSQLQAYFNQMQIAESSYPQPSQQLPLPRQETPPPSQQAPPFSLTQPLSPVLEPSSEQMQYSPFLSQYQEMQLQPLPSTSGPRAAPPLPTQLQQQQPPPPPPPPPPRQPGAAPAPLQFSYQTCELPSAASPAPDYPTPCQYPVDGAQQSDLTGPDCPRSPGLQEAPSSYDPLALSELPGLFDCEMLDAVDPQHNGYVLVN
Sequence of VEG-FR1 (P17948 27-1338): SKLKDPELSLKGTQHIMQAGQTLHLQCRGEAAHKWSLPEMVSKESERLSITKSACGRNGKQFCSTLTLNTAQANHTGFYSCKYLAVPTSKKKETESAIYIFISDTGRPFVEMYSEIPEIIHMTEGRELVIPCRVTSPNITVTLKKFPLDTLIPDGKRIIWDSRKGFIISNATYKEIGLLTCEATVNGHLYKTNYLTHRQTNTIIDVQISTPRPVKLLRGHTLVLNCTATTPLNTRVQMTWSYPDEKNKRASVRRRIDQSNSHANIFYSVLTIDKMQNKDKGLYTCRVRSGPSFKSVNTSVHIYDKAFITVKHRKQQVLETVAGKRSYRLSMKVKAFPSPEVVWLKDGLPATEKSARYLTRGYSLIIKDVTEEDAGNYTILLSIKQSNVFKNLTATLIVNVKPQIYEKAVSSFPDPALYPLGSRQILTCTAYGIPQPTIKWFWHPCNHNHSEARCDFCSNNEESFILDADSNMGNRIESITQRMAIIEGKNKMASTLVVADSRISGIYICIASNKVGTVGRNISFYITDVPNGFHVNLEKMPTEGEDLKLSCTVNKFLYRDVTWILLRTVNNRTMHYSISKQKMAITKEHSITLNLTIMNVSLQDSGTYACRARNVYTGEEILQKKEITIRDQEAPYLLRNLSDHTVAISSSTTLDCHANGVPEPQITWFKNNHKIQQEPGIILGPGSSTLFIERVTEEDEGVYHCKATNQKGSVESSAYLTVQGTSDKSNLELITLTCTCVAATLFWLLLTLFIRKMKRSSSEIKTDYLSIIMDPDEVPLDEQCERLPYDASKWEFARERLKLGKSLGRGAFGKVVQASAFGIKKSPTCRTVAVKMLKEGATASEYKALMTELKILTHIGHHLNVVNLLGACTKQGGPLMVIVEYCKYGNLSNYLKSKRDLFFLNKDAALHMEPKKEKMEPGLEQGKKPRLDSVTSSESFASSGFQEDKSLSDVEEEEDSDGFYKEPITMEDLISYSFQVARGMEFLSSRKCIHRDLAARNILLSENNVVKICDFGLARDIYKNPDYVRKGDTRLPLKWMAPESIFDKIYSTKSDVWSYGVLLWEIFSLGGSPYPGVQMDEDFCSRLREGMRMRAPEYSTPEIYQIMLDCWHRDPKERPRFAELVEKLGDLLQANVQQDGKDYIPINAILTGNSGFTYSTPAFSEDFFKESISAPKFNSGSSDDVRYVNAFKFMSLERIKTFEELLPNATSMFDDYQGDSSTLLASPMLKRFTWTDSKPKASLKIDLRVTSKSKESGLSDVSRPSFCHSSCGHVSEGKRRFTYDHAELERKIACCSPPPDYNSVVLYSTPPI

For the compound `C=CS(=O)(=O)c1ccc(Nc2nc(OCC3CCCCC3)c3nc[nH]c3n2)cc1` [NU6300, 6-(cyclohexylmethoxy)-N-(4-(vinylsulfonyl)phenyl)-9H-purin-2-amine], the remaining activity at 1 µM at S6K1 came to 82%; on VEG-FR1, 14%; at p38γ MAPK it was 104%; at ZAP70, 90%. The remaining activity at 0.5 µM stood at 11% on MST2 (setting [1]); 38% on MST2 (setting [2]); 54% on Src (setting [1]); 48% on Src (setting [2]); 69% at SIK2 (setting [1]); 39% at SIK2 (setting [2]). The remaining activity at 0.5 µM at ROCK 2 (setting [1]) worked out at 47%; at ROCK 2 (setting [2]), 46%; on TAK1 (setting [1]) it was 24%; at TAK1 (setting [2]) it was 19%; at RSK1 (setting [1]) it was 131%; on RSK1 (setting [2]) it was 83%. Further, at MST2 (Mst2, 4-hr pre-incubation vs usual format, 0.5 µM), the “additional loss of activity after pre-incubation” value is > 50%.
